From ChEMBL document CHEMBL1138261, “Probing binding requirements of type I and type II isoforms of inosine monophosphate dehydrogenase with adenine-modified nicotinamide adenine dinucleotide analogues” (J Med Chem, 2007)

Assays:
[1] = target: Inosine-5'-monophosphate dehydrogenase 1 (Homo sapiens, UniProt P20839); assay: Inhibition of human IMPDH type 1
[2] = target: Inosine-5'-monophosphate dehydrogenase 2 (Homo sapiens, UniProt P12268); assay: Inhibition of human IMPDH type 2
[3] = Inhibition of horse liver alcohol dehydrogenase; design: species or system Equus caballus
[4] = target: Malate dehydrogenase (Sus scrofa); assay: Inhibition of porcine heart malate dehydrogenase
[5] = target: L-lactate dehydrogenase (Bos taurus); assay: Inhibition of bovine heart lactate dehydrogenase
K562 = assay: Antiproliferative activity against human K562 cells after 72 hrs; format: functional, cell-based; conditions: K562, 72 h

Sequence of Inosine-5'-monophosphate dehydrogenase 1 (P20839 whole entry): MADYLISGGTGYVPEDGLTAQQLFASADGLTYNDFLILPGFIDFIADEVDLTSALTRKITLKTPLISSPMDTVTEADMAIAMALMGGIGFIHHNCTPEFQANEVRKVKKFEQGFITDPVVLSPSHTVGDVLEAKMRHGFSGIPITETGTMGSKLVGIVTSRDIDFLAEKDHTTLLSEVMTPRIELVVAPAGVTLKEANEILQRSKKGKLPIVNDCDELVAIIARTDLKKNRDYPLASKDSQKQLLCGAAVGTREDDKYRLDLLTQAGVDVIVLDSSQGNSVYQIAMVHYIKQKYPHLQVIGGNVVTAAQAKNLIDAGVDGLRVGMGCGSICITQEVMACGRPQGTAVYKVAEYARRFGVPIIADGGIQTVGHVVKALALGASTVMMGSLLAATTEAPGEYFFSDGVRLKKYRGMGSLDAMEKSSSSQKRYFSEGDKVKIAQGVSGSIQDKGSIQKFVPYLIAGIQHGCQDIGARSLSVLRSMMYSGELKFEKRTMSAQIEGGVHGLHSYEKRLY

Row | Ki [1] | Ki [2] | IC50 [3] | IC50 [4] | IC50 [5] | IC50 (K562) | SMILES
1 | 10 nM | 49 nM | > 50000 nM | > 50000 nM | > 50000 nM | – | C#Cc1nc(N)c2ncn([C@@H]3O[C@H](COP(=O)(O)OP(=O)(O)OC[C@H]4O[C@@H](c5nc(C(N)=O)cs5)[C@H](O)[C@@H]4O)[C@@H](O)[C@H]3O)c2n1
2 | 20 nM | 143 nM | – | > 50000 nM | > 50000 nM | – | NC(=O)c1csc([C@@H]2O[C@H](COP(=O)(O)OP(=O)(O)OC[C@H]3O[C@@H](n4cnc5c(N)nc(-c6ccccc6)nc54)[C@H](O)[C@@H]3O)[C@@H](O)[C@H]2O)n1
3 | 45 nM | 169 nM | – | 30000 nM | > 50000 nM | – | NC(=O)c1csc([C@@H]2O[C@H](COP(=O)(O)OP(=O)(O)OC[C@H]3O[C@@H](n4cnc5c(N)nc(NCc6ccccc6)nc54)[C@H](O)[C@@H]3O)[C@@H](O)[C@H]2O)n1
4 | 1 nM | – | > 50000 nM | > 50000 nM | > 50000 nM | – | CCc1nc(N)c2ncn([C@@H]3O[C@H](COP(=O)(O)OP(=O)(O)OC[C@H]4O[C@@H](c5nc(C(N)=O)cs5)[C@H](O)[C@@H]4O)[C@@H](O)[C@H]3O)c2n1
5 | 19 nM | 84 nM | – | > 50000 nM | > 50000 nM | – | NC(=O)c1csc([C@@H]2O[C@H](COP(=O)(O)OP(=O)(O)OC[C@H]3O[C@@H](n4cnc5c(N)nc(I)nc54)[C@H](O)[C@@H]3O)[C@@H](O)[C@H]2O)n1
6 | 7 nM | – | > 50000 nM | > 50000 nM | > 50000 nM | – | NC(=O)c1csc([C@@H]2O[C@H](COP(=O)(O)OP(=O)(O)OC[C@H]3O[C@@H](n4cnc5c(N)nc(N)nc54)[C@H](O)[C@@H]3O)[C@@H](O)[C@H]2O)n1
7 | 66 nM | 108 nM | > 50000 nM | 14300 nM | > 50000 nM | 1100 nM | COc1c(C)c2c(c(O)c1CCOP(=O)(O)CP(=O)(O)OC[C@H]1O[C@@H](n3cnc4c(N)nc(-c5ccccc5)nc43)[C@H](O)[C@@H]1O)C(=O)OC2
8 | 73 nM | 255 nM | – | 12700 nM | > 50000 nM | – | NC(=O)c1csc([C@@H]2O[C@H](COP(=O)(O)OP(=O)(O)OC[C@H]3O[C@@H](n4cnc5c(N)nc(NCCc6ccccc6)nc54)[C@H](O)[C@@H]3O)[C@@H](O)[C@H]2O)n1
9 | 96 nM | 94 nM | 39000 nM | > 50000 nM | > 50000 nM | – | C=Cc1nc(N)c2ncn([C@@H]3O[C@H](COP(=O)(O)OP(=O)(O)OC[C@H]4O[C@@H](c5nc(C(N)=O)cs5)[C@H](O)[C@@H]4O)[C@@H](O)[C@H]3O)c2n1
10 | 45 nM | 153 nM | > 50000 nM | > 50000 nM | > 50000 nM | – | NC(=O)c1csc([C@@H]2O[C@H](COP(=O)(O)OP(=O)(O)OC[C@H]3O[C@@H](n4cnc5c(N)nc(Nc6ccccc6)nc54)[C@H](O)[C@@H]3O)[C@@H](O)[C@H]2O)n1
11 | – | – | – | – | – | 7700 nM | COc1c(C)c2c(c(O)c1C/C=C(\C)CCC(=O)O)C(=O)OC2 [MYCOPHENOLIC ACID]
12 | – | – | – | – | – | 12400 nM | NC(=O)c1csc([C@@H]2O[C@H](COP(=O)(O)OP(=O)(O)OC[C@H]3O[C@@H](n4cnc5c(N)ncnc54)[C@H](O)[C@@H]3O)[C@@H](O)[C@H]2O)n1 [TIAZOFURIN ADENINE DINUCLEOTIDE]
